# Several values for one entry are separate records, joined by “and”; a condition that tells them apart may be missing. Equal entries are not always repeated.
# System: K24384-001-R-PDC complex spheroid viability
# Test: Anticancer human tumor K24384-001-R-PDC patient-derived pancreatic adenocarcinoma cell line growth inhibition
# Conditions: for viability, T/C: stronger effect = lower value
# Procedure, shortened: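 Drug combinations with the LSD1 inhibitor iadademstat tested on tumor cells co-cultured as spheroids with endothelial cells and mesenchymal stem cells. Concentrations descended in half-log increments from clinical Cmax or 10 microM.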
# [1] = curve of first compound, second compound 0.1 µM
# [2] = curve of first compound, second compound 0.316 µM
# [3] = curve of first compound, second compound 1 µM
# [4] = curve of first compound, second compound 3.16 µM
# [5] = curve of first compound, second compound 10 µM
# [6] = second compound 0.1 µM, first compound 0.0316 µM
# [7] = second compound 0.1 µM, first compound 0.1 µM
# [8] = second compound 0.1 µM, first compound 0.316 µM
# [9] = second compound 0.1 µM, first compound 1 µM
# [10] = second compound 0.316 µM, first compound 0.0316 µM
# [11] = second compound 0.316 µM, first compound 0.1 µM
# [12] = second compound 0.316 µM, first compound 0.316 µM
# [13] = second compound 0.316 µM, first compound 1 µM
# [14] = second compound 1 µM, first compound 0.0316 µM
# [15] = second compound 1 µM, first compound 0.1 µM
# [16] = second compound 1 µM, first compound 0.316 µM
# [17] = second compound 1 µM, first compound 1 µM
# [18] = second compound 3.16 µM, first compound 0.0316 µM
# [19] = second compound 3.16 µM, first compound 0.1 µM
# [20] = second compound 3.16 µM, first compound 0.316 µM
# [21] = second compound 3.16 µM, first compound 1 µM
# [22] = second compound 10 µM, first compound 0.0316 µM
# [23] = second compound 10 µM, first compound 0.1 µM
# [24] = second compound 10 µM, first compound 0.316 µM
# [25] = second compound 10 µM, first compound 1 µM
# 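Further: spheroids exposed to agents for seven days before luminescence viability reading.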
# 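Wherever viability, T/C is given: 100% = DMSO vehicle control viability.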
smiles,measurement,setting,value
CC1COCCN1c1cc(-c2ccnn2C)c2ccnc(-c3ccn[nH]3)c2n1 (stereo unspecified) + NC1CCC(NC2CC2c2ccccc2)CC1,IC50,[1],56.6 nM
same,IC50,[2],< 3.16 nM
same,IC50,[3],7.71 nM
same,IC50,[4],9.22 nM
same,IC50,[5],5.07 nM
same,"viability, T/C","second compound 0.1 µM, first compound 0.00316 µM",54.7%
same,"viability, T/C","second compound 0.1 µM, first compound 0.01 µM",56.7%
same,"viability, T/C",[6],49%
same,"viability, T/C",[7],45.1%
same,"viability, T/C",[8],52.2%
same,"viability, T/C",[9],42.4%
same,"viability, T/C","second compound 0.316 µM, first compound 0.00316 µM",52.6%
same,"viability, T/C","second compound 0.316 µM, first compound 0.01 µM",48.3%
same,"viability, T/C",[10],42.5%
same,"viability, T/C",[11],43.3%
same,"viability, T/C",[12],51.6%
same,"viability, T/C",[13],44.4%
same,"viability, T/C","second compound 1 µM, first compound 0.00316 µM",51%
same,"viability, T/C","second compound 1 µM, first compound 0.01 µM",56.5%
same,"viability, T/C",[14],41.6%
same,"viability, T/C",[15],40.2%
same,"viability, T/C",[16],47.5%
same,"viability, T/C",[17],44.2%
same,"viability, T/C","second compound 3.16 µM, first compound 0.00316 µM",55.4%
same,"viability, T/C","second compound 3.16 µM, first compound 0.01 µM",51.7%
same,"viability, T/C",[18],41.8%
same,"viability, T/C",[19],42%
same,"viability, T/C",[20],49.7%
same,"viability, T/C",[21],36.2%
same,"viability, T/C","second compound 10 µM, first compound 0.00316 µM",48.4%
same,"viability, T/C","second compound 10 µM, first compound 0.01 µM",54.9%
same,"viability, T/C",[22],39.2%
same,"viability, T/C",[23],34.7%
same,"viability, T/C",[24],33.2%
same,"viability, T/C",[25],31.6%
O=C(c1cc(Cc2n[nH]c(=O)c3ccccc23)ccc1F)N1CCN(C(=O)C2CC2)CC1,"viability, T/C",compound 0.0316 µM,104% and 94.8%
same,"viability, T/C",compound 0.1 µM,97.3% and 91.9%
same,"viability, T/C",compound 0.316 µM,91% and 88.9%
same,"viability, T/C",compound 1 µM,85.5% and 81.4%
same,"viability, T/C",compound 3.16 µM,82.9% and 67.7%
same,"viability, T/C",compound 10 µM,84.4% and 70.1%
same,IC50,curve of compound,> 10000 nM
O=C(C=Cn1cnc(-c2cc(C(F)(F)F)cc(C(F)(F)F)c2)n1)NNc1cnccn1,"viability, T/C",compound 0.00316 µM,74% and 75.6%
same,"viability, T/C",compound 0.01 µM,61.5% and 68%
same,"viability, T/C",compound 0.0316 µM,60.1% and 51.8%
same,"viability, T/C",compound 0.1 µM,35.2% and 28.2%
same,"viability, T/C",compound 0.316 µM,29.8% and 27.7%
same,"viability, T/C",compound 1 µM,19.4% and 19.7%
same,IC50,curve of compound,45.2 nM and 32.6 nM
CC[C@@]1(O)C(=O)OCc2c1cc1n(c2=O)Cc2cc3c(CN(C)C)c(O)ccc3nc2-1,"viability, T/C",compound 0.000316 µM,107% and 94.3%
same,"viability, T/C",compound 0.001 µM,107% and 78.8%
same,"viability, T/C",compound 0.00316 µM,83.1% and 87.1%
same,"viability, T/C",compound 0.01 µM,73% and 57.5%
same,"viability, T/C",compound 0.0316 µM,61.3% and 49.8%
same,"viability, T/C",compound 0.1 µM,49.9% and 42.5%
same,IC50,curve of compound,> 100 nM and 21.4 nM
CC1COCCN1c1cc(C2(S(C)(=N)=O)CC2)nc(-c2ccnc3[nH]ccc23)n1 (stereo unspecified) + NC1CCC(NC2CC2c2ccccc2)CC1,IC50,[1],2450 nM
same,IC50,[2],1630 nM
same,IC50,[3],2320 nM
same,IC50,[4],1830 nM
same,IC50,[5],1710 nM
same,"viability, T/C",[6],82.9%
same,"viability, T/C",[7],79.5%
same,"viability, T/C",[8],91.1%
same,"viability, T/C",[9],71.5%
same,"viability, T/C","second compound 0.1 µM, first compound 3.16 µM",43.2%
same,"viability, T/C","second compound 0.1 µM, first compound 10 µM",44.5%
same,"viability, T/C",[10],95.2%
same,"viability, T/C",[11],90.1%
same,"viability, T/C",[12],107%
same,"viability, T/C",[13],57.5%
same,"viability, T/C","second compound 0.316 µM, first compound 3.16 µM",45.5%
same,"viability, T/C","second compound 0.316 µM, first compound 10 µM",34.3%
same,"viability, T/C",[14],84.4%
same,"viability, T/C",[15],88%
same,"viability, T/C",[16],84.3%
same,"viability, T/C",[17],67%
same,"viability, T/C","second compound 1 µM, first compound 3.16 µM",44%
same,"viability, T/C","second compound 1 µM, first compound 10 µM",38.9%
same,"viability, T/C",[18],80.6%
same,"viability, T/C",[19],97.6%
same,"viability, T/C",[20],82.9%
same,"viability, T/C",[21],60.4%
same,"viability, T/C","second compound 3.16 µM, first compound 3.16 µM",41.8%
same,"viability, T/C","second compound 3.16 µM, first compound 10 µM",34.4%
same,"viability, T/C",[22],79.6%
same,"viability, T/C",[23],74%
same,"viability, T/C",[24],76.8%
same,"viability, T/C",[25],60.4%
same,"viability, T/C","second compound 10 µM, first compound 3.16 µM",36.9%
same,"viability, T/C","second compound 10 µM, first compound 10 µM",39%

# — PubChem BioAssay AID1918949 (Molecular Pharmacology Branch, DTP, NCI, 2023)
